Source: patent US20250152702A1, “EPICHAPEROME INHIBITION TO IMPROVE T CELL RESPONSES” (priority 2023, published 2025)
“Also recorded” adds a separate entry of the source. Like-named read-outs stand apart in the source and are kept apart here.

Experiments:
IFNγ-secreting T cells = test: OVA immunization of mice, OVA-specific T cell response by IFNγ ELISPOT; type: in vivo, C57BL/6 mice
Procedure: (§1) FIGS. 3A-3H. Disruption of the epichaperome using PU-H71 improves OVA-specific T cells response and anti-tumor immune response in a mouse model. (A) C57BL/6 (B6) mice were injected intraperitoneally (i.p.) with PU-H71 (75 mg/kg) n=8 or PBS n=8 on days 0, 3 and 7. On day 1, all mice were immunized subcutaneously (s.c.) with 100 μg OVA emulsified in incomplete Freund's adjuvant (IFA), experimental controls shown in schema. Peripheral blood (PB) was collected on days 0, 5 and 9, and the spleen was collected at the end of the experiment, on day 9. (B, C) T cell immunization against OVA was assessed by measuring IFN[…] release from T cells after exposure with OVA using Elispot assay. Two-tailed T test (D) Anti-OVA IgG in serum was assessed by ELISA. (E) B6 mice were immunized with OVA treated with PU-H71 (75 mg/kg) n=8 or PBS n=8 on days 11, 15 and 18. PB and spleen were collected at the end of the experiment, on day 20. (F) T cell immunization against OVA was assessed by measuring IFN[…] by Elispot assay. […] On day 7 after immunization, mice challenged with OVA-expressing EG.7 tumor cells (H) tumor volume was assessed every 2-3 days using calipers. p values shown for day 13 assessment by one-way ANOVA.
(§2) The effects of an epichaperome disrupter, PU-H71, were tested on C57BL/6 mice immune responses to ovalbumin (OVA) immunization. OVA-specific T- and B-cell responses were evaluated by ELISPOT and ELISA, respectively. […]
In vivo: In vivo assessment in immunization model: the well-characterized in vivo immunization model that utilizes chicken ovalbumin (OVA) will be used. […] Antibody production against OVA will be assessed in the peripheral blood (PB) at day 9 to confirm that the immunization took place (40). PU-H71 will be evaluated at different dosing schedules: before OVA administration to assess an effect on priming, shortly after OVA administration to assess an effect on T cell proliferation and polarization, and after the response has been completed (11 days) to evaluate an effect on the already ongoing response (for this cohort, mice will be sacrificed 9 days after PU-H71 treatment). […]

anti-OVA IgG = test: OVA immunization of mice, anti-OVA antibody by ELISA; type: in vivo, C57BL/6 mice; settings: PU-H71 at the time of priming
Procedure: as §1, with “PB and spleen were collected at the end of the experiment, on day 20.” left out
as §2

[1] = system: E.G7 (OVA+) lymphoma cells; test: Anti-tumor response in OVA-immunized mice challenged with E.G7 lymphoma; type: in vivo, C57BL/6 mice
Procedure: as §1, with “ANOVA. […]” for “ANOVA.”
In vivo assessment in an anti-tumor response model: E.G7 cells are OVA-expressing cells derived from the C57BL/6 (H-2b) mouse lymphoma cell line EL4, allowing for the establishment of a syngeneic lymphoma mouse model to evaluate anti-tumor protection after OVA immunization (39). […] At day 7 after immunization, lymphoma cells will be injected subcutaneously into the mice, and tumor growth will be evaluated twice a week using micro calipers. Tumor volume will be determined as mm^3=length×width^2 (41). Survival will be also determined as an endpoint (mice will be euthanized when tumor size reaches 2000 mm^3 or the animals lose more than 10% of weight). Differences in tumor growth and survival will be determined in mice immunized with OVA and PU-H71 compared to the controls OVA+IFA or no immunization. […]

[2] = system: NALM6 (CD19+ B-ALL cell line)
Procedure: FIGS. 7A-7C. […] (A) Schematic representation. CART19/4-1BB or control T cells were cultured with NALM6 (CD19^+ B-ALL cell line) for 18 h at a E:T ratio of 1:1. (B) Cytotoxicity was evaluated by flow cytometry and represented as relative to the number of dead cells in the control cells (no effector cells). Experiment performed in triplicate, Error bar represents the SEM, significance assessed using ANOVA test. (C) In vivo testing.
To better understand its effect on human T cells and its potential adjuvant effect during cellular therapy, in vitro and in vivo chimeric antigen receptor (CAR)-T cell (CAR-T cells) phenotype and function in the presence of PU-H71 was tested. […] Finally, the therapeutic effect of the combination of PU-H71 and CART19 was evaluated in a B-ALL NSG mouse model using NALM6-BLIV cells, with bioluminescence imaging and flow cytometry (CART19 and leukemic cells) monitoring.
To investigate the impact of epichaperome disruption on CAR T cells, CART19/4-1BB was generated and tested. […] Subsequently, the impact of epichaperome disruption on the function of CART19/4-1BB cells was assessed during co-culture with leukemia cells expressing CD19. The cytotoxic effect of CART19/4-1BB cells against Nalm-6 (CD19^+ B-ALL cell line) was measured with or without 1 μM PU-H71 (FIG. 7).

NALM6-BLIV cells = test: B-ALL NSG mouse model with NALM6-BLIV cells, PU-H71 combined with CART19; type: in vivo
Procedure: Nalm-6 xenograft: Xenografts will be initiated using CD19^+ B-cell acute lymphoblastic leukemia (B-ALL), Nalm-6 cells expressing luciferase and GFP (BLIV/GFP) transplanted into NSG mice (59). Anti-CD19 CAR T cells (CART19/4-1BB) or non-transduced T cells (NTC) will be administered once engraftment is confirmed by bioluminescence and flow cytometry. Four treatment cohorts will be studied: (1) saline, (2) PU-H71 (75 mg/kg i.p. bi-weekly), (3) CART19/4-1BB, (4) PU-H71 (75 mg/kgi.p. bi-weekly)+CART19/4-1BB. Each cohort will consist of 8 mice, ensuring >80% power at two-sided alpha of 0.05 to detect a standardized effect size of 1.6 in tumor burden and immune cell modulation, and will include both male and female mice. The PU-H71 dose and schedule will be determined based on data (9, 17). Tumor progression will be monitored weekly using bioluminescence imaging, with CAR T cell percentage and phenotype assessed in PB from day 2 onwards and every subsequent week, as published previously (17, 59). Bone marrow (BM) aspirates on day 14 will assess tumor burden and CAR T persistence. At the endpoint, the spleen, BM, and PB will be harvested to determine leukemia burden and CAR T cell phenotype.

activated T cells = test: Activated human T cells treated with PU-H71: survival and surface phenotype by flow cytometry; type: cell-based
Procedure: FIGS. 2A-2D. Epichaperomes are formed in activated T cells and their disruption impacts T cell activation phenotype but not survival. (A) Resting T cells from healthy donors were assayed for the abundance of epichaperomes by flow cytometry. (B) Purified T cells activated with anti-CD3/CD28 beads were tested for changes in epichaperome abundance 20 h after activation and compared with resting T cells and MV4-11 as a positive control. n=3, One-way ANOVA ** p<0.002, *** p<0.0002 (C, D) T cells were treated with 1 μM PU-H71 upon activation to assess the effect of epichaperome disruption on survival (C) and cell surface phenotype (CD4, CD8, CD25, CD69, HLA-DR) n=3 *p<0.03 two-tailed T-test (D).
Thus, epichaperome formation skews the balance of T cell populations and functions towards an immunosuppressive outcome, a balance that can be restored to a cytotoxic function by epichaperome disruptors. This leads to a role of epichaperome disruptors, such as PU-H71, in CAR T cell cytotoxicity and the ability of epichaperome disruptors, such as, PU-H71, to improve the outcomes of AML patients in the post-transplant setting by improving GvL without affecting GvHD.

[3] = system: acute myeloid leukemia (AML); settings: cited from earlier work; for exacerbation of GvHD in the patient: patient with donor T cell chimerism after failed allo-HSCT; for duration of complete remission: single agent, AML patient with high epichaperome abundance, post-transplant relapse
Hsp90 = settings: cited from earlier work

CC(C)NCCCn1c(Sc2cc3c(cc2I)OCO3)nc2c(N)ncnc21 [PU-H71, 8-[(6-iodo-1,3-benzodioxol-5-yl)sulfanyl]-9-[3-(propan-2-ylamino)propyl]purin-6-amine]
number of IFNγ-secreting T cells (median) (IFNγ-secreting T cells; PU-H71 75 mg/kg i.p. at the time of priming, OVA immunization, ELISPOT, n=8, controls 42, p=0.0002): 126 per million of cells
effect on OVA-specific T cell response (IFNγ-secreting T cells; PU-H71 administered once the OVA-specific T cell response was ongoing): no effect
impact on T cell phenotype (IFNγ-secreting T cells; PU-H71 at the time of priming): without overt impact; also recorded: without an impact
impact on anti-OVA antibody levels (anti-OVA IgG): without overt impact; also recorded: without an impact
in vivo anti-tumor immune response / tumor progression ([1]; OVA-primed mice plus PU-H71, E.G7 challenge): significantly decreases tumor progression; also recorded: improved in vivo anti-tumor immune responses
ability to control tumor progression ([1]; PU-H71 without immunization, n=6): 16 days
ability to control tumor progression ([1]; mice immunized against OVA without IFA and treated with PU-H71, OVA alone 16 days, saline 14 days, n=8): 18 days
in vitro cytotoxicity of CAR-T cells toward NALM6 B-ALL cells [2]: 74.66%
CART19 numbers in the bone marrow (NALM6-BLIV cells): increases CART19 numbers in the bone marrow
in vivo antitumor efficacy of CART19 against NALM6 (NALM6-BLIV cells): improves their in vivo antitumor efficacy
CD4 to CD8 ratio (activated T cells; 1 μM PU-H71 upon activation): increase of CD8^+ cells; also recorded: skewed towards more CD8^+ cells
expression of activation marker CD69 (activated T cells; 1 μM PU-H71 upon activation): not significantly changed
viability of activated T cells (activated T cells; 1 μM PU-H71 upon activation with anti-CD3/CD28 beads): no detrimental effect
myelosuppression and drug-related toxicities ([3]; patient treated for >5 yrs): without significant myelosuppression or drug-related extramedullary toxicities
exacerbation of GvHD in the patient [3]: did not exacerbate GvHD; also recorded: did not exacerbate these symptoms
exacerbation of GvHD in the patient ([3]; listed as Zelavespib): without exacerbation of GvHD
exacerbation of GvHD in the patient ([3]; listed as zelavespib): no clinically relevant exacerbation
time to complete remission (CR) ([3]; single AML patient): ≤ 45 days
duration of complete remission [3]: over five years
duration of complete remission ([3]; listed as Zelavespib): > 5 years
duration of complete remission ([3]; listed as zelavespib): over 5 years
binding preference for Hsp90 form (Hsp90): preferential binding to Hsp90 when it is in the highly integrated complexed form that is the epichaperome
